Measurements published in PubChem BioAssay AID1963442 (Molecular Pharmacology Branch, DTP, NCI, 2024).

Test system: MPNST complex spheroid with HUVEC/MSC, growth, % test/control
Test: Anticancer human tumor MPNST cell line growth inhibition [Asc];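 further: compounds left on spheroids for seven days before reading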
Settings: for IC50: curve of first compound; for viability, T/C: stronger effect = lower value
Outline: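 Stromal components (HUVEC and hMSC) are co-assembled with the cancer cells into multicellular spheroids. Drugs are then added singly or paired, at concentrations falling by half-log increments from a clinically achievable maximum, capped at 10 microM without known Cmax.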

[1] = second compound 0.03 µM, first compound 0.0316 µM
[2] = second compound 0.03 µM, first compound 0.1 µM
[3] = second compound 0.03 µM, first compound 0.316 µM
[4] = second compound 0.03 µM, first compound 1 µM
[5] = second compound 0.03 µM, first compound 3.16 µM
[6] = second compound 0.03 µM, first compound 10 µM
[7] = second compound 0.0949 µM, first compound 0.0316 µM
[8] = second compound 0.0949 µM, first compound 0.1 µM
[9] = second compound 0.0949 µM, first compound 0.316 µM
[10] = second compound 0.0949 µM, first compound 1 µM
[11] = second compound 0.0949 µM, first compound 3.16 µM
[12] = second compound 0.0949 µM, first compound 10 µM
[13] = second compound 0.3 µM, first compound 0.0316 µM
[14] = second compound 0.3 µM, first compound 0.1 µM
[15] = second compound 0.3 µM, first compound 0.316 µM
[16] = second compound 0.3 µM, first compound 1 µM
[17] = second compound 0.3 µM, first compound 3.16 µM
[18] = second compound 0.3 µM, first compound 10 µM
[19] = second compound 0.949 µM, first compound 0.0316 µM
[20] = second compound 0.949 µM, first compound 0.1 µM
[21] = second compound 0.949 µM, first compound 0.316 µM
[22] = second compound 0.949 µM, first compound 1 µM
[23] = second compound 0.949 µM, first compound 3.16 µM
[24] = second compound 0.949 µM, first compound 10 µM
[25] = second compound 3 µM, first compound 0.0316 µM
[26] = second compound 3 µM, first compound 0.1 µM
[27] = second compound 3 µM, first compound 0.316 µM
[28] = second compound 3 µM, first compound 1 µM
[29] = second compound 3 µM, first compound 3.16 µM
[30] = second compound 3 µM, first compound 10 µM

SMILES	IC50 (second compound 0.03 µM)	IC50 (second compound 0.0949 µM)	IC50 (second compound 0.3 µM)	IC50 (second compound 0.949 µM)	IC50 (second compound 3 µM)	viability, T/C [1]	viability, T/C [2]	viability, T/C [3]	viability, T/C [4]	viability, T/C [7]	viability, T/C [8]	viability, T/C [9]	viability, T/C [10]	viability, T/C [13]	viability, T/C [14]	viability, T/C [15]	viability, T/C [16]	viability, T/C [19]	viability, T/C [20]	viability, T/C [21]	other results
C#Cc1c(F)ccc2cc(O)cc(-c3ncc4c(N5CC6CCC(C5)N6)nc(OCC56CCCN5CC(F)C6)nc4c3F)c12 (stereo not given) + CCN1C(C(=O)NC23CCC(C(=O)O)(CC2)CC3)C(c2cccc(Cl)c2F)C2(C(=O)Nc3cc(Cl)ccc32)C12CCCCC2	> 10 µM	> 10 µM	> 10 µM	> 10 µM	> 10 µM	71.3%	72.9%	79.2%	75.8%	70.3%	83.3%	75.7%	76.7%	84.6%	73.6%	89.1%	72.6%	66.8%	72%	73%	viability, T/C [5]: 78.4%; viability, T/C [6]: 68.4%; viability, T/C [11]: 71.2%; viability, T/C [12]: 77%; viability, T/C [17]: 60.8%; viability, T/C [18]: 51%; viability, T/C [22]: 60.9%; viability, T/C [23]: 61.1%; viability, T/C [24]: 52.5%; viability, T/C [25]: 66.5%; viability, T/C [26]: 62.2%; viability, T/C [27]: 57.8%; viability, T/C [28]: 59.8%; viability, T/C [29]: 60.1%; viability, T/C [30]: 68.8%
C=C(F)C(=O)N1CCN(c2nc(OCC3CCCN3C)nc3c2CCN(c2cccc4cccc(Cl)c24)C3)CC1CC#N (stereo not given) + CCN1C(C(=O)NC23CCC(C(=O)O)(CC2)CC3)C(c2cccc(Cl)c2F)C2(C(=O)Nc3cc(Cl)ccc32)C12CCCCC2	> 10 µM	> 10 µM	> 10 µM	> 10 µM	3.89 µM	56.3%	61.1%	65.2%	63.1%	87.5%	59%	77.5%	75.6%	92.4%	85.3%	106%	63.6%	88.5%	80.3%	97.5%	viability, T/C [5]: 72.9%; viability, T/C [6]: 65.6%; viability, T/C [11]: 67%; viability, T/C [12]: 66.2%; viability, T/C [17]: 82.8%; viability, T/C [18]: 68.8%; viability, T/C [22]: 62.1%; viability, T/C [23]: 55.4%; viability, T/C [24]: 57%; viability, T/C [25]: 84.8%; viability, T/C [26]: 74.8%; viability, T/C [27]: 73%; viability, T/C [28]: 60.8%; viability, T/C [29]: 50.8%; viability, T/C [30]: 42.7%
C=CC(=O)N1CCN(c2nc(=O)n(-c3c(C)ccnc3C(C)C)c3nc(-c4c(O)cccc4F)c(F)cc23)C(C)C1 (stereo not given) + CCN1C(C(=O)NC23CCC(C(=O)O)(CC2)CC3)C(c2cccc(Cl)c2F)C2(C(=O)Nc3cc(Cl)ccc32)C12CCCCC2	> 10 µM	> 10 µM	> 10 µM	> 10 µM	> 10 µM	62.4%	76.1%	73.3%	87.7%	84.9%	85.3%	99.8%	103%	75.7%	85.3%	93.6%	94.5%	77.7%	71%	90.6%	viability, T/C [5]: 106%; viability, T/C [6]: 108%; viability, T/C [11]: 98.8%; viability, T/C [12]: 124%; viability, T/C [17]: 90.2%; viability, T/C [18]: 101%; viability, T/C [22]: 77.7%; viability, T/C [23]: 81%; viability, T/C [24]: 117%; viability, T/C [25]: 85.9%; viability, T/C [26]: 76.5%; viability, T/C [27]: 59%; viability, T/C [28]: 75.8%; viability, T/C [29]: 79.8%; viability, T/C [30]: 89.1%
CNC(C)C(=O)NC1CN(S(=O)(=O)c2cccc(S(=O)(=O)N3CCC4CCC(C(=O)NC(c5ccccc5)c5ccccc5)N4C(=O)C(NC(=O)C(C)NC)C3)c2)CCC2CCC(C(=O)NC(c3ccccc3)c3ccccc3)N2C1=O (stereo not given) + CCN1C(C(=O)NC23CCC(C(=O)O)(CC2)CC3)C(c2cccc(Cl)c2F)C2(C(=O)Nc3cc(Cl)ccc32)C12CCCCC2	> 1 µM	> 1 µM	> 1 µM	> 1 µM	> 1 µM	94.7%	114%	106%	93%	100%	100%	108%	89.3%	99.4%	99.8%	96.6%	122%	107%	104%	105%	viability, T/C (second compound 0.03 µM, first compound 0.00316 µM): 74.7%; viability, T/C (second compound 0.03 µM, first compound 0.01 µM): 78.1%; viability, T/C (second compound 0.0949 µM, first compound 0.00316 µM): 92.5%; viability, T/C (second compound 0.0949 µM, first compound 0.01 µM): 93.9%; viability, T/C (second compound 0.3 µM, first compound 0.00316 µM): 101%; viability, T/C (second compound 0.3 µM, first compound 0.01 µM): 99.7%; viability, T/C (second compound 0.949 µM, first compound 0.00316 µM): 98.1%; viability, T/C (second compound 0.949 µM, first compound 0.01 µM): 93.2%; viability, T/C [22]: 106%; viability, T/C (second compound 3 µM, first compound 0.00316 µM): 86.2%; viability, T/C (second compound 3 µM, first compound 0.01 µM): 86.9%; viability, T/C [25]: 100%; viability, T/C [26]: 104%; viability, T/C [27]: 93.8%; viability, T/C [28]: 118%
